Earlier results in patent US20070014883A1, “Method for treating osteoarthritis” (priority 2005, published 2007).
Entries after “also recorded” stand apart in the source; their conditions may differ.

How the values were obtained:
MMP-1 = target: T1, MMP-1 (Homo sapiens, UniProt P03956); settings: reference 24
T1 sequence (P03956 100-469): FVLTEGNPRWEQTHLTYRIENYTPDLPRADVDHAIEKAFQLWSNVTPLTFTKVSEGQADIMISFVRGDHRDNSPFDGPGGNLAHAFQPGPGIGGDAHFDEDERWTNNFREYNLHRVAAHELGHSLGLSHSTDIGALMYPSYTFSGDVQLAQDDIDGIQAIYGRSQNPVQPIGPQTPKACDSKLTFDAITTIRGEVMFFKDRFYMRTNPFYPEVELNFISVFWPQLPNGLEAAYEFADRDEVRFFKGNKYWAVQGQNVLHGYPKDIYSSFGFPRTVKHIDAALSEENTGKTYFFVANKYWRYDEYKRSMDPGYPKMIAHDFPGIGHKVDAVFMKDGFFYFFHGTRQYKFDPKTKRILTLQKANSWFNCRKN

MMP-2 = target: T2, MMP-2 (Homo sapiens, UniProt P08253); settings: for Inhibitory activity against MMP-2, potency relative to captopril: more potent than captopril; for Inhibition of MMP-2: reference 24
T2 sequence (P08253 110-660): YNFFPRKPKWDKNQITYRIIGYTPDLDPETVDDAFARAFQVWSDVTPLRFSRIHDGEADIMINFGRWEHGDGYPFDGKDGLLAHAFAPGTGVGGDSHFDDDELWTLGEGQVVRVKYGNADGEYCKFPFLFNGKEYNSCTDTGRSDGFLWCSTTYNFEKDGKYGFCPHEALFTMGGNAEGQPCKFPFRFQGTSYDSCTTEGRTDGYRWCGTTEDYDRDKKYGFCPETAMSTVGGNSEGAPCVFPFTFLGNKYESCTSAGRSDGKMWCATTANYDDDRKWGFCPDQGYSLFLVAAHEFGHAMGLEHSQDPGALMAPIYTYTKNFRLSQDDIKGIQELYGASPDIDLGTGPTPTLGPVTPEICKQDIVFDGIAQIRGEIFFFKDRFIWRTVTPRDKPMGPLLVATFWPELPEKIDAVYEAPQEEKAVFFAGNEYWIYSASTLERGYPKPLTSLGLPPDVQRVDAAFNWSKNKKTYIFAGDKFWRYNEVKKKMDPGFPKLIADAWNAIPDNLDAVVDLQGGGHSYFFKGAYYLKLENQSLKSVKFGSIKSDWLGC

MMP-9 = MMP-9 (Homo sapiens, UniProt P14780); settings: for Inhibitory activity against MMP-9, potency relative to captopril: more potent than captopril; for Inhibition of MMP-9: reference 24
Sequence of MMP-9 (P14780 94-707, species assumed): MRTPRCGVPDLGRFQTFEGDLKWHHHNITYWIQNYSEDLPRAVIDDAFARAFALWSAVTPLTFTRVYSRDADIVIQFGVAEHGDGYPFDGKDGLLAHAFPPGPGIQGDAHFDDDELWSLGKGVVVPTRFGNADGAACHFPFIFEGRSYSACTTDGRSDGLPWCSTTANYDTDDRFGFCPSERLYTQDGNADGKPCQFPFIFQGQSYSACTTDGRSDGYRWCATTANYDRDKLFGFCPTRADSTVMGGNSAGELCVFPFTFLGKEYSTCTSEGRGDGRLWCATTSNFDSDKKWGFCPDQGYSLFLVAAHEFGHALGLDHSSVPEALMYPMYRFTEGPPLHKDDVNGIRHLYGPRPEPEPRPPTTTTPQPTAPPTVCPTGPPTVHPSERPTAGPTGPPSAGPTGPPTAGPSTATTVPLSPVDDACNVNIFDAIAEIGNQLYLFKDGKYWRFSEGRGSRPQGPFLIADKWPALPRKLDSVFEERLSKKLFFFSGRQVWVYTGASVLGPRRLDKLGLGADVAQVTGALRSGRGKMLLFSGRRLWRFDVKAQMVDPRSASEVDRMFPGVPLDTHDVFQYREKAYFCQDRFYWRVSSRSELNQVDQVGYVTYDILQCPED

Compound | Inhibition of MMP-1 (MMP-1) | Inhibitory activity against MMP-2, potency relative to captopril (MMP-2) [fold] | Inhibition of MMP-2 (MMP-2) | Inhibitory activity against MMP-9, potency relative to captopril (MMP-9) [fold] | Inhibition of MMP-9 (MMP-9)
O=C1CCC(Cc2ccc(O)c(O)c2)O1 (stereo not shown) [M1, δ-(3,4-dihydroxy-phenyl)-γ-valerolactone] | strong inhibitory activity; also recorded: more potent than the parent molecules | 100 | strong inhibitory activity; also recorded: more potent than the parent molecules | 100 | strong inhibitory activity; also recorded: more potent than the parent molecules
COc1cc(CC2CCC(=O)O2)ccc1O (stereo not shown) [M2, δ-(3-methoxy-4-hydroxyphenyl)-γ-valerolactone] | strong inhibitory activity; also recorded: more potent than the parent molecules | 100 | strong inhibitory activity; also recorded: more potent than the parent molecules | 100 | strong inhibitory activity; also recorded: more potent than the parent molecules
